Results as given in DBAASP.
In brackets after ≈: the same amount, converted by molar mass. Several values for one entry are separate records, joined by “and”; a condition that tells them apart may be missing. Equal entries are not always repeated. Values belong to the compound of their own block, whether it stands above or below them.

What was measured:
Experiment in all cases: ≥ marks a high value that may be exact or a test limit, other limits are often not marked, values filed in µg/mL are converted to µM
[1] = system: Staphylococcus aureus ATCC 25923
Escherichia coli C25 = system: Escherichia coli C25
[2] = system: Acinetobacter baumannii KCTC 2508
[3] = system: Pseudomonas aeruginosa ATCC 27853
[4] = system: Bacillus subtilis KCTC 2217
[5] = system: Salmonella typhimurium KCTC 1926
[6] = system: Enterococcus faecium ATCC 51559
[7] = system: Pseudomonas aeruginosa CCARM 2095
[8] = system: Bacillus subtilis KCTC 3068
[9] = system: Escherichia coli KCTC 1682
[10] = system: Staphylococcus aureus CCARM 3089
[11] = system: Staphylococcus aureus CCARM 3095
[12] = system: Staphylococcus aureus CCARM 3090
[13] = system: Staphylococcus epidermidis KCTC 1917
[14] = system: Staphylococcus aureus KCTC 1621
[15] = system: Pseudomonas aeruginosa KCTC 1637
[16] = system: Pseudomonas aeruginosa ATCC 9027
[17] = system: Pseudomonas aeruginosa Ps4
[18] = system: Staphylococcus aureus ATCC 6538P
[19] = system: Klebsiella aerogenes ATCC 35029
Bacillus megaterium Bm11 = system: Bacillus megaterium Bm11
[20] = system: Escherichia coli ATCC 25922
[21] = system: Candida albicans ATCC 90028
[22] = system: Staphylococcus aureus USA 300
[23] = system: Enterococcus faecalis ATCC 19433
[24] = system: Staphylococcus aureus USA 100
[25] = system: Streptococcus pyogenes ATCC 49399
[26] = system: Pseudomonas aeruginosa PAO1
[27] = system: Enterobacter cloacae ATCC 49141
[28] = system: Salmonella enterica subsp. enterica serovar Pullorum C79-13
[29] = system: Staphylococcus epidermidis ATCC 12228
[30] = system: Staphylococcus aureus ATCC 43300
[31] = system: Bacillus subtilis CMCC 63501
[32] = system: Staphylococcus aureus ATCC 29213
Escherichia coli UB1005 = system: Escherichia coli UB1005
[33] = system: Salmonella typhimurium ATCC 7731

- MIC [5]: 6.3 µM (≈ 14.3 µg/mL)
- MIC [6]: ≥ 50 µM
- MIC [7]: 25 µM (≈ 56.9 µg/mL)
- MIC [8]: 6.3 µM (≈ 14.3 µg/mL)
- MIC [9]: 6.3 µM (≈ 14.3 µg/mL)
- MIC [10]: 12.5 µM (≈ 28.5 µg/mL)
- MIC [11]: 25 µM (≈ 56.9 µg/mL)
- MIC [12]: 25 µM (≈ 56.9 µg/mL)
- MIC [13]: 6.3 µM (≈ 14.3 µg/mL)
- MIC [14]: 12.5 µM (≈ 28.5 µg/mL)
- MIC [15]: 6.3 µM (≈ 14.3 µg/mL)
SMILES: CC[C@H](C)[C@H](NC(=O)[C@@H](NC(=O)[C@H](Cc1cnc[nH]1)NC(=O)[C@H](CCCN=C(N)N)NC(=O)[C@H](C)NC(=O)[C@H](CCCN=C(N)N)NC(=O)[C@H](CC(C)C)NC(=O)[C@H](CO)NC(=O)[C@H](C)NC(=O)[C@H](CC(C)C)NC(=O)[C@@H](N)CC(N)=O)[C@@H](C)O)C(=O)N1CCC[C@H]1C(=O)N[C@@H](CCC(N)=O)C(=O)N[C@@H](CCCN=C(N)N)C(=O)N[C@@H](CCCCN)C(=O)N[C@@H](Cc1ccccc1)C(=O)NCC(=O)N[C@@H](CCCN=C(N)N)C(=O)N[C@@H](CCCN=C(N)N)C(=O)O [NLASLRARHTIPQRKFGRR]

- MIC [16]: 100 µM (≈ 130 µg/mL)
- MIC [17]: ≥ 48.1 µM
- MIC [18]: ≥ 40 µM
- MIC [19]: ≥ 40 µM
- MIC [3]: 40 µM (≈ 51.9 µg/mL)
- MIC (Bacillus megaterium Bm11): 1.25 µM (≈ 1.62 µg/mL)
- MIC [20]: 8.71 µM and 10 µM
- MIC [21]: ≥ 100 µM
- MIC [22]: 12.5 µM (≈ 16.2 µg/mL)
- MIC [23]: ≥ 40 µM
- MIC [24]: 12.5 µM (≈ 16.2 µg/mL)
- MIC [25]: 2.5 µM (≈ 3.25 µg/mL)
- MIC [26]: 24.6 µM (≈ 32 µg/mL)
- MIC [27]: ≥ 40 µM
SMILES: CC[C@H](C)[C@H](NC(=O)[C@H](CCCN=C(N)N)NC(=O)[C@@H](NC(=O)[C@H](CCCN=C(N)N)NC(=O)[C@H](Cc1c[nH]c2ccccc12)NC(=O)[C@H](Cc1ccccc1)NC(=O)[C@@H]1CCCN1)[C@@H](C)CC)C(=O)N[C@@H](CCCN=C(N)N)C(=O)N[C@@H](CCCN=C(N)N)C(N)=O [PFWRIRIRR]

- MIC [28]: 2 µM (≈ 6.37 µg/mL)
- MIC [29]: 32 µM (≈ 102 µg/mL)
- MIC [3]: 2 µM (≈ 6.37 µg/mL)
- MIC [30]: 32 µM (≈ 102 µg/mL)
- MIC [31]: 8 µM (≈ 25.5 µg/mL)
- MIC [32]: 32 µM (≈ 102 µg/mL)
- MIC (Escherichia coli UB1005): 2 µM (≈ 6.37 µg/mL)
- MIC [33]: 8 µM (≈ 25.5 µg/mL)
SMILES: CC(C)C[C@H](NC(=O)[C@H](CCCCN)NC(=O)[C@H](CCCCN)NC(=O)[C@H](C)NC(=O)[C@@H](NC(=O)[C@H](CCCCN)NC(=O)[C@H](CO)NC(=O)[C@H](CC(C)C)NC(=O)[C@H](Cc1c[nH]c2ccccc12)NC(=O)[C@H](CC(C)C)NC(=O)[C@H](CCCCN)NC(=O)[C@H](CCCCN)NC(=O)[C@H](C)NC(=O)[C@@H](NC(=O)[C@H](CCCCN)NC(=O)[C@H](CO)NC(=O)[C@H](CC(C)C)NC(=O)[C@H](Cc1c[nH]c2ccccc12)NC(=O)[C@H](CC(C)C)NC(=O)[C@H](CCCCN)NC(=O)[C@H](CCCCN)NC(=O)[C@H](C)NC(=O)[C@@H](NC(=O)[C@H](CCCCN)NC(=O)[C@H](CO)NC(=O)[C@H](CC(C)C)NC(=O)[C@@H](N)Cc1c[nH]c2ccccc12)[C@@H](C)O)[C@@H](C)O)[C@@H](C)O)C(N)=O [WLSKTAKKLWLSKTAKKLWLSKTAKKL]

The next lines start with the compound.

SMILES: CC[C@H](C)[C@H](NC(=O)CNC(=O)[C@H](CCCN=C(N)N)NC(=O)[C@H](Cc1ccc(O)cc1)NC(=O)[C@@H](NC(=O)[C@H](CCCN=C(N)N)NC(=O)[C@H](Cc1ccccc1)NC(=O)[C@H](Cc1c[nH]c2ccccc12)NC(=O)[C@@H](N)CCCCN)C(C)C)C(=O)N[C@@H](Cc1ccc(O)cc1)C(N)=O [KWFRVYRGIY]
- MIC [1]: 180 µM (≈ 250 µg/mL)
- MIC (Escherichia coli C25): ≥ 720 µM

SMILES: CC(C)C[C@H](NC(=O)[C@H](CC(C)C)NC(=O)[C@@H]1CCCN1C(=O)[C@H](CCCCN)NC(=O)[C@H](CCCCN)NC(=O)[C@H](CC(C)C)NC(=O)[C@H](CC(C)C)NC(=O)[C@H](CCCCN)NC(=O)[C@H](CCCCN)NC(=O)[C@H](Cc1c[nH]c2ccccc12)NC(=O)[C@@H](N)CCCCN)C(=O)N[C@@H](CCCCN)C(N)=O [KWKKLLKKPLLK]
- MIC [2]: 25 µM (≈ 38.1 µg/mL)
- MIC [3]: > 25 µM
- MIC [4]: 6.25 µM (≈ 9.51 µg/mL)
